Assay results taken from patent US9817000B2, “Method for identifying compounds that modulate a T2R taste receptor” (The Regents of the University of California, priority 1999, dated 2017).
Where two headings read alike, the source gives them in different places.

How the values were obtained:
[1] = tested on: Cyx taster and non-taster mouse strains; conditions: cited from earlier work; for taste behaviour: non-taster strains
[2] = molecular target: T1, hT2R4 (Homo sapiens, UniProt Q9NYW5); test: FURA-2 [Ca2+]i imaging in HEK-293 cells expressing Gα15 and rho-hT2R4; format: cell-based; conditions: for [Ca2+]i response (FURA-2): 1.5 mM denatonium
T1 construct: Full-length hT2Rs were isolated by PCR amplification of genomic DNA; expressed in transfected cells; host or cells: HEK-293 cells (PEAKrapid) expressing Gα15
T1 sequence (Q9NYW5 1-299): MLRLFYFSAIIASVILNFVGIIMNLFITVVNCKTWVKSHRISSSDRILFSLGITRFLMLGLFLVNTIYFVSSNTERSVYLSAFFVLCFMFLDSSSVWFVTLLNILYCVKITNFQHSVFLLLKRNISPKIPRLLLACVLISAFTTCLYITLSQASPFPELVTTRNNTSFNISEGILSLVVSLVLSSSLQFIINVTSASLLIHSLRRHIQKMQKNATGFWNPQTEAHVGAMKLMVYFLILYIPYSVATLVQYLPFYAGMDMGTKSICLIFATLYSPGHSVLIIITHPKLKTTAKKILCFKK
Description: (§1) In this system, receptor activation leads to increases in intracellular calcium [Ca2+]i, which can be monitored at the single cell level using the FURA-2 calcium-indicator dye (Tsien et al., Cell Calcium 6:145-157 (1985)). To test and optimize Gα15 coupling, two different GPCRs, a Gαi-coupled μ-opioid receptor (Reisine, Neuropharm. 34:463-472 (1995)) and a Gαq-coupled mGluR1 receptor (Masu et al., Nature 349:760-765 (1991)), were used. Transfection of these receptors into HEK-293 cell produced robust, agonist-selective, and Gα15-dependent Ca^2+ responses (FIG. 1).
(§2) A number of studies have shown that many GPCRs, in particular sensory receptors, require specific “chaperones” for maturation and targeting through the secretory pathway (Baker et al., Embo J 13:4886-4895 (1994); Dwyer et al., Cell 93:455-466 (1998)). Recently, Krautwurst et al. (Cell 95:917-926 (1998)) generated chimeric receptors consisting of the first 20 amino acids of rhodopsin and various rodent olfactory receptors. These were targeted to the plasma membrane and functioned as odorant receptors in HEK-293 cells. To determine whether rhodopsin sequences can also help target T2Rs to the plasma membra, rhodopsin-T2R chimeras (rho-T2Rs) were constructed. […] Similar results were obtained with 11 human and 16 rodent T2Rs (see below). To further enhance the level of T2R expression, rho-T2Rs were placed under the control of a strong EF-1α promoter, and introduced as episomal plasmids into modified HEK-293 cells expressing Gα15 (pEAKrapid cells).
(§3) A bridge overlap PCR extension technique was used to generate rho-T2R chimeras, which contain the first 39 amino acids of bovine rhodopsin in frame with human and rodent T2R coding sequences (Mehta and Singh, Biotechniques 26:1082-1086 (1999). All receptors were cloned into a pEAK10 mammalian expression vector (Edge Biosystems, MD). Modified HEK-293 cells (PEAK^rapid cells; Edge BioSystems, MD) were grown and maintained at 37° C. in UltraCulture medium (Bio Whittaker) supplemented with 5% fetal bovine serum, 100 μg/ml Gentamycin sulphate (Fisher), 1 μg/ml Amphotericin B and 2 mM GlutaMax I (Lifetechnologies). For transfection, cells were seeded onto matrigel coated 24-well culture plates or 35 mm recording chambers. After 24 h at 37° C., cells were washed in OptiMEM medium (Lifetechnologies) and transfected using LipofectAMINE reagent (Lifetechnologies). Transfection efficiencies were estimated by co-transfection of a GFP reporter plasmid, and were typically >70%. Immunofluoresence staining, and activity assays were performed 36-48 h after transfection.
(§4) Transfected cells were washed once in Hank's balanced salt solution with 1 mM sodium pyruvate and 10 mM HEPES, pH 7.4 (assay buffer), and loaded with 2 μM FURA-2 AM (Molecular Probes) for 1 h at room temperature. The loading solution was removed and cells were incubated in 200 μl of assay buffer for 1 h to allow the cleavage of the AM ester. For most experiments, 24-well tissue culture plates containing cells expressing a single rho-T2R were stimulated with 200 μl of a 2× tastant solution (see next section). [Ca^2+]i changes were monitored using a Nikon Diaphot 200 microscope equipped with a 10×/0.5 fluor objective with the TILL imaging system (T.I.L.L Photonics GmbH). Acquisition and analysis of the fluorescence images used TILL-Vision software. Generally, [Ca^2+]i was measured for 80-120 s by sequentially illuminating cells for 200 ms at 340 nm and 380 nm and monitoring the fluorescence emission at 510 nm using a cooled CCD camera. The F340/F380 ratio was analyzed to measure [Ca^2+]i.
Kinetics of activation and deactivation were measured using a bath perfusion system. Cells were seeded onto a 150 μl microperfusion chamber, and test solutions were pressure-ejected with a picospritzer apparatus (General Valve, Inc.). Flow-rate was adjusted to ensure complete exchange of the bath solution within 4-5 s. […]

[3] = molecular target: T2, mT2R8 (Mus musculus, UniProt Q9JKT3); test: FURA-2 [Ca2+]i imaging in HEK-293 cells expressing Gα15 and rho-mT2R8; format: cell-based; conditions: for [Ca2+]i response (FURA-2): 1.5 mM denatonium
T2 construct: expressed in transfected cells; host or cells: HEK-293 cells (PEAKrapid) expressing Gα15
T2 sequence (Q9JKT3 1-297): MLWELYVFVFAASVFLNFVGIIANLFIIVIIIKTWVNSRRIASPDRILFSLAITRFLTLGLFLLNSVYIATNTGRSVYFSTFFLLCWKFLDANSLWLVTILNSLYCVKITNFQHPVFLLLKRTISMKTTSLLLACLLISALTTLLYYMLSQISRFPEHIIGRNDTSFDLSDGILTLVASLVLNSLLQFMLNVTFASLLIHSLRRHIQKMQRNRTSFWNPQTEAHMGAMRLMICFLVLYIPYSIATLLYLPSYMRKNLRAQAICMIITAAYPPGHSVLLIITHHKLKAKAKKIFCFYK
Description: as §1, §2, §3
as §4, with “For most experiments, 24-well tissue culture plates containing cells expressing a single rho-T2R were stimulated with 200 μl of a 2× tastant solution (see next section).” left out
Kinetics of activation and deactivation were measured using a bath perfusion system. […]

[4] = tested on: other hT2Rs; test: FURA-2 [Ca2+]i imaging in control untransfected cells or cells transfected with other hT2Rs; format: cell-based, human
Method: To determine whether other T2Rs are also activated by bitter compounds, 11 rhodopsin-tagged human T2R receptors were assayed by individually transfecting them into HEK-293 cells expressing Gα15. Each transfected line was tested against a battery of bitter and sweet tastants, including amino acids, peptides, and other natural and synthetic compounds.

[5] = concentrations as in FIG. 4 (denatonium 5 mM)

SMILES | avoidance threshold ([1]; Cyx taster strains) | taste behaviour ([1]; at 8 μM) | taste behaviour ([1]; at 1) | decrease in sensitivity ([1]; non-tasters vs taster strains) | sensitivity threshold ([1]; rodents) | [Ca2+]i response [2] | [Ca2+]i response (FURA-2) ([2]; absence of Gα15) | [Ca2+]i response (FURA-2) ([2]; with Gα15) | increase in [Ca2+]i on tastant stimulation [2, 5] | threshold of dose-dependent response ([2]; in µM) | receptor activation [3] | [Ca2+]i response (FURA-2) ([3]; absence of Gα15) | [Ca2+]i response (FURA-2) ([3]; with Gα15) | increase in [Ca2+]i on tastant stimulation [3, 5] | [Ca2+]i response [4]
C[C@@H]1C[C@@H]([C@H](O)CC2CC(=O)NC(=O)C2)C(=O)[C@@H](C)C1 [cycloheximide] | 0.25 | strongly avoid | non-tasters | ~8 fold | ~0.25 µM |  |  |  |  |  |  |  |  |  | 
CC[N+](CC)(CC(=O)Nc1c(C)cccc1C)Cc1ccccc1 [denatonium] |  |  |  |  |  | significant transient increase in [Ca2+]i | No increase in [Ca2+]i | robust Gα15 dependent responses | increase in [Ca2+]i could be induced | ~100 | activated | No increase in [Ca2+]i | robust Gα15 dependent responses | increase in [Ca2+]i could be induced | not
